Converted amounts (≈) assume the structure as drawn.
Legend:
[1] = system: Candida albicans; experiment: Antimicrobial activity against Candida albicans ATCC 76615; format: functional
[2] = system: Candida tropicalis; experiment: Antimicrobial activity against Candida tropicalis isolates; format: functional
[3] = system: Cryptococcus neoformans; experiment: Antimicrobial activity against Cryptococcus neoformans ATCC 32609; format: functional
[4] = system: Aspergillus fumigatus; experiment: Antimicrobial activity against Aspergillus fumigatus isolates; format: functional
[5] = system: Trichophyton rubrum; experiment: Antimicrobial activity against Trichophyton rubrum isolates; format: functional
[6] = system: Nannizzia gypsea; experiment: Antimicrobial activity against Microsporum gypseum isolates; format: functional
[7] = system: Fonsecaea compacta; experiment: Antimicrobial activity against Fonsecaea compacta isolates; format: functional
[8] = system: Candida parapsilosis; experiment: Antimicrobial activity against Candida parapsilosis isolates; conditions: Lodderomyces parapsilosis

Row | SMILES | MIC [1] | MIC [2] | MIC [3] | MIC [4] | MIC [5] | MIC [6] | MIC [7] | MIC [8]
1 | Oc1ccc(CNc2ccc(-c3ccc(OCC(O)(Cn4cncn4)c4ccc(F)cc4F)cc3)cn2)cc1 (stereo unspecified) | 0.0625 µg/mL (≈ 0.118 µM) | 0.0156 µg/mL (≈ 0.0295 µM) | > 64 µg/mL | > 64 µg/mL | > 64 µg/mL | 4 µg/mL (≈ 7.55 µM) | 1 µg/mL (≈ 1.89 µM) | 0.0625 µg/mL (≈ 0.118 µM)
2 | O=C(O)c1ccc(NCc2ccc(-c3ccc(OCC(O)(Cn4cncn4)c4ccc(F)cc4F)cc3)cc2)cc1 (stereo unspecified) | 0.0156 µg/mL (≈ 0.028 µM) | 0.0039 µg/mL (≈ 0.00701 µM) | > 64 µg/mL | 16 µg/mL (≈ 28.7 µM) | 0.25 µg/mL (≈ 0.449 µM) | 1 µg/mL (≈ 1.8 µM) | 1 µg/mL (≈ 1.8 µM) | 0.0625 µg/mL (≈ 0.112 µM)
3 | OC(COc1ccc(-c2ccc(CNc3cccc(Cl)c3)cc2)cc1)(Cn1cncn1)c1ccc(F)cc1F (stereo unspecified) | 0.25 µg/mL (≈ 0.457 µM) | 0.25 µg/mL (≈ 0.457 µM) | > 64 µg/mL | > 64 µg/mL | 1 µg/mL (≈ 1.83 µM) | > 64 µg/mL | > 64 µg/mL | 0.25 µg/mL (≈ 0.457 µM)
4 | C[C@@H](c1ncncc1F)[C@](O)(Cn1cncn1)c1ccc(F)cc1F [VORICONAZOLE] | 0.25 µg/mL (≈ 0.716 µM) | 0.0156 µg/mL (≈ 0.0447 µM) | 1 µg/mL (≈ 2.86 µM) | 0.25 µg/mL (≈ 0.716 µM) | 0.0156 µg/mL (≈ 0.0447 µM) | 0.0156 µg/mL (≈ 0.0447 µM) | 0.0625 µg/mL (≈ 0.179 µM) | 0.0625 µg/mL (≈ 0.179 µM)
5 | Cc1ccc(C(=O)Nc2ccc(-c3ccc(OCC(O)(Cn4cncn4)c4ccc(F)cc4F)cc3)cn2)cc1 (stereo unspecified) | 0.0625 µg/mL (≈ 0.115 µM) | 0.0625 µg/mL (≈ 0.115 µM) | 0.25 µg/mL (≈ 0.462 µM) | > 64 µg/mL | 0.0625 µg/mL (≈ 0.115 µM) | 0.25 µg/mL (≈ 0.462 µM) | 1 µg/mL (≈ 1.85 µM) | 0.0625 µg/mL (≈ 0.115 µM)
6 | O=C(CCl)Nc1ccc(-c2ccc(OCC(O)(Cn3cncn3)c3ccc(F)cc3F)cc2)cn1 (stereo unspecified) | 0.25 µg/mL (≈ 0.5 µM) | 0.25 µg/mL (≈ 0.5 µM) | 1 µg/mL (≈ 2 µM) | > 64 µg/mL | 0.25 µg/mL (≈ 0.5 µM) | 1 µg/mL (≈ 2 µM) | 1 µg/mL (≈ 2 µM) | 0.25 µg/mL (≈ 0.5 µM)
7 | CNCc1ccc(-c2ccc(OCC(O)(Cn3cncn3)c3ccc(F)cc3F)cc2)cc1 (stereo unspecified) | 0.25 µg/mL (≈ 0.555 µM) | 0.25 µg/mL (≈ 0.555 µM) | 64 µg/mL (≈ 142 µM) | > 64 µg/mL | 0.0625 µg/mL (≈ 0.139 µM) | 1 µg/mL (≈ 2.22 µM) | 4 µg/mL (≈ 8.88 µM) | 0.25 µg/mL (≈ 0.555 µM)
8 | CN(C)Cc1ccc(-c2ccc(OCC(O)(Cn3cncn3)c3ccc(F)cc3F)cc2)cc1 (stereo unspecified) | 0.25 µg/mL (≈ 0.538 µM) | 0.0625 µg/mL (≈ 0.135 µM) | 4 µg/mL (≈ 8.61 µM) | 64 µg/mL (≈ 138 µM) | 0.0625 µg/mL (≈ 0.135 µM) | 1 µg/mL (≈ 2.15 µM) | 4 µg/mL (≈ 8.61 µM) | 0.25 µg/mL (≈ 0.538 µM)
9 | O=C(Nc1ccc(-c2ccc(OCC(O)(Cn3cncn3)c3ccc(F)cc3F)cc2)cn1)c1ccc(CCl)cc1 (stereo unspecified) | 0.0156 µg/mL (≈ 0.0271 µM) | 0.0625 µg/mL (≈ 0.109 µM) | 0.25 µg/mL (≈ 0.434 µM) | > 64 µg/mL | 0.25 µg/mL (≈ 0.434 µM) | 1 µg/mL (≈ 1.74 µM) | 1 µg/mL (≈ 1.74 µM) | 0.0625 µg/mL (≈ 0.109 µM)
10 | OCCNCc1ccc(-c2ccc(OCC(O)(Cn3cncn3)c3ccc(F)cc3F)cc2)cc1 (stereo unspecified) | 4 µg/mL (≈ 8.32 µM) | 1 µg/mL (≈ 2.08 µM) | 64 µg/mL (≈ 133 µM) | > 64 µg/mL | 1 µg/mL (≈ 2.08 µM) | 16 µg/mL (≈ 33.3 µM) | 16 µg/mL (≈ 33.3 µM) | 1 µg/mL (≈ 2.08 µM)
11 | CCNc1ccc(-c2ccc(OCC(O)(Cn3cncn3)c3ccc(F)cc3F)cc2)cn1 (stereo unspecified) | 0.0625 µg/mL (≈ 0.138 µM) | 0.0625 µg/mL (≈ 0.138 µM) | 16 µg/mL (≈ 35.4 µM) | > 64 µg/mL | > 64 µg/mL | > 64 µg/mL | 1 µg/mL (≈ 2.21 µM) | 0.0625 µg/mL (≈ 0.138 µM)
12 | Nc1ccc(-c2ccc(OCC(O)(Cn3cncn3)c3ccc(F)cc3F)cc2)cn1 (stereo unspecified) | 0.0625 µg/mL (≈ 0.148 µM) | 0.25 µg/mL (≈ 0.59 µM) | 64 µg/mL (≈ 151 µM) | 4 µg/mL (≈ 9.45 µM) | 0.0156 µg/mL (≈ 0.0368 µM) | 0.25 µg/mL (≈ 0.59 µM) | 0.0625 µg/mL (≈ 0.148 µM) | 0.25 µg/mL (≈ 0.59 µM)
13 | CCCCCCCNc1ccc(-c2ccc(OCC(O)(Cn3cncn3)c3ccc(F)cc3F)cc2)cn1 (stereo unspecified) | 0.25 µg/mL (≈ 0.479 µM) | 0.25 µg/mL (≈ 0.479 µM) | 1 µg/mL (≈ 1.92 µM) | > 64 µg/mL | 0.25 µg/mL (≈ 0.479 µM) | 1 µg/mL (≈ 1.92 µM) | 1 µg/mL (≈ 1.92 µM) | 1 µg/mL (≈ 1.92 µM)
14 | OC(COc1ccc(-c2ccc(NCc3ccccc3)nc2)cc1)(Cn1cncn1)c1ccc(F)cc1F (stereo unspecified) | 0.25 µg/mL (≈ 0.487 µM) | 0.25 µg/mL (≈ 0.487 µM) | 1 µg/mL (≈ 1.95 µM) | 4 µg/mL (≈ 7.79 µM) | 0.25 µg/mL (≈ 0.487 µM) | > 64 µg/mL | 4 µg/mL (≈ 7.79 µM) | 0.0625 µg/mL (≈ 0.122 µM)
15 | O=C(CN1CCCCC1)Nc1ccc(-c2ccc(OCC(O)(Cn3cncn3)c3ccc(F)cc3F)cc2)cn1 (stereo unspecified) | 0.0625 µg/mL (≈ 0.114 µM) | 0.0156 µg/mL (≈ 0.0284 µM) | 1 µg/mL (≈ 1.82 µM) | > 64 µg/mL | 0.25 µg/mL (≈ 0.456 µM) | 0.25 µg/mL (≈ 0.456 µM) | 1 µg/mL (≈ 1.82 µM) | 0.0625 µg/mL (≈ 0.114 µM)
16 | O=C(CN1CCNCC1)Nc1ccc(-c2ccc(OCC(O)(Cn3cncn3)c3ccc(F)cc3F)cc2)cn1 (stereo unspecified) | 16 µg/mL (≈ 29.1 µM) | 1 µg/mL (≈ 1.82 µM) | 64 µg/mL (≈ 116 µM) | > 64 µg/mL | 1 µg/mL (≈ 1.82 µM) | 1 µg/mL (≈ 1.82 µM) | 1 µg/mL (≈ 1.82 µM) | 4 µg/mL (≈ 7.28 µM)
17 | OC(COc1ccc(-c2ccc(NCc3cccc(Cl)c3)nc2)cc1)(Cn1cncn1)c1ccc(F)cc1F (stereo unspecified) | 4 µg/mL (≈ 7.3 µM) | 0.25 µg/mL (≈ 0.456 µM) | 4 µg/mL (≈ 7.3 µM) | > 64 µg/mL | 4 µg/mL (≈ 7.3 µM) | 1 µg/mL (≈ 1.82 µM) | 4 µg/mL (≈ 7.3 µM) | 0.25 µg/mL (≈ 0.456 µM)
